Where a name gives a salt, the structure may show the parent alone.
Biological target: human recombinant TPK1 (Homo sapiens, UniProt P49841)
Experiment: Inhibitory activity against P-GS1 phosphorylation by TPK1 (Kinase Glo luminescence)
Format: biochemical
Conditions: 7.5 μM P-GS1, 10 μM ATP, 25° C. for 16 hours, Kinase Glo Reagent luminescent signal
Experimental: Inhibitory Activity of the Medicament of the Present Invention Against P-GS1 Phosphorylation by Bovine Cerebral TPK1
A mixture containing 100 mM HEPES-sodium hydroxide (pH 7.2), 1 mM magnesium acetate, 1 mM EGTA, 1 mM dithiothreitol (DTT), 0.02% Tween 20, 7.5 μM P-GS1, 10 μM ATP, human recombinant TPK1 and a compound shown in Table (a final mixture contained 1% DMSO deriving from a solution of a test compound prepared in the presence of 10% DMSO) was used as a reaction system. The phosphorylation was started by adding ATP, and the reaction was conducted at 25° C. for 16 hours. Then equal volume of Kinase Glo Reagent (Promega) was added to the mixture and luminescent signal from the mixture was measured. IC50 for each compound was calculated by setting the data of mixture without enzyme as 0% activity and that without compound as 100% activity.

human recombinant TPK1, sequence (P49841 whole entry): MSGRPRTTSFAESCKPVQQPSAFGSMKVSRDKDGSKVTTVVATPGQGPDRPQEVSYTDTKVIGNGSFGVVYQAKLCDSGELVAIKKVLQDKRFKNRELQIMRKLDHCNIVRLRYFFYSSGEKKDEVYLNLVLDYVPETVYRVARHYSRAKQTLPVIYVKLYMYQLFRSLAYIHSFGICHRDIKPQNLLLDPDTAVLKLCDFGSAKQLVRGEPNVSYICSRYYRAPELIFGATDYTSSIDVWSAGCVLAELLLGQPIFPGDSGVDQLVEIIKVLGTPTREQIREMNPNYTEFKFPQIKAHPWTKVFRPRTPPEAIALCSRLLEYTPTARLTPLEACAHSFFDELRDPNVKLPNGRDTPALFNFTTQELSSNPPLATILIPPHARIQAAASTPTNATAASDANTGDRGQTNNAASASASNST

Compound | IC50
Cn1c(N2CCCO[C@@H](c3ccc(Br)cc3)C2)nc(-c2ccncc2F)cc1=O [Compound A010, (S)-2-[2-(4-bromophenyl)-1,4-oxazepan-4-yl]-6-(3-fluoropyridin-4-yl)-3-methylpyrimidin-4(3H)-one] | 5.5 nM
Cn1c(N2CCCO[C@@H](c3ccc(F)cc3)C2)nc(-c2ccncc2F)cc1=O [Compound A011, (S)-2-[2-(4-fluorophenyl)-1,4-oxazepan-4-yl]-6-(3-fluoropyridin-4-yl)-3-methylpyrimidin-4(3H)-one] | 6 nM
Cn1c(N2CCCO[C@@H](c3cccc(C(N)=O)c3)C2)nc(-c2ccncc2F)cc1=O [Compound A012] | 6.7 nM
Cn1c(N2CCCO[C@@H](c3ccc(C#N)cc3)C2)nc(-c2ccncc2F)cc1=O [Compound A013, (S)-2-[2-(4-cyanophenyl)-1,4-oxazepan-4-yl]-6-(3-fluoropyridin-4-yl)-3-methylpyrimidin-4(3H)-one] | 7.3 nM
Cn1c(N2CCOC(c3ccccc3F)CC2)nc(-c2ccncc2F)cc1=O (stereo not drawn) [Compound A014, 2-[7-(2-fluorophenyl)-1,4-oxazepan-4-yl]-6-(3-fluoropyridin-4-yl)-3-methylpyrimidin-4(3H)-one] | 8.15 nM
Cn1c(N2CCCO[C@@H](c3cccc(C(N)=O)c3)C2)nc(-c2ccncn2)cc1=O [Compound A015, (S)-2-[2-(3-aminocarbonylphenyl)-1,4-oxazepan-4-yl]-3-methyl-6-(pyrimidin-4-yl)pyrimidin-4(3H)-one] | 9.3 nM
Cc1nc(-c2cccc([C@H]3CN(c4nc(-c5ccncc5F)cc(=O)n4C)CCCO3)c2)no1 [Compound A016, (S)-2-[2-[3-(5-methyl-1,2,4-oxadiazol-3-yl)-phenyl]-1,4-oxazepan-4-yl]-6-(3-fluoropyridin-4-yl)-3-methylpyrimidin-4(3H)-one] | 10.3 nM
Cn1c(N2CCCO[C@@H](c3ccc(C(N)=O)cc3)C2)nc(-c2ccncc2)cc1=O [Compound A017, (S)-2-[2-(4-aminocarbonylphenyl)-1,4-oxazepan-4-yl]-3-methyl-6-(pyridin-4-yl)pyrimidin-4(3H)-one] | 11 nM
Cn1c(N2CCCO[C@@H](c3ccc(C(N)=O)cc3)C2)nc(-c2ccncn2)cc1=O [Compound A018] | 11 nM
Cc1noc(-c2ccc([C@H]3CN(c4nc(-c5ccncc5F)cc(=O)n4C)CCCO3)cc2)n1 [Compound A019, (S)-2-[2-[4-(3-methyl-1,2,4-oxadiazol-5-yl)-phenyl]-1,4-oxazepan-4-yl]-6-(3-fluoropyridin-4-yl)-3-methylpyrimidin-4(3H)-one] | 11.1 nM
Cn1c(N2CCCO[C@@H](c3cccc(C#N)c3)C2)nc(-c2ccncc2F)cc1=O [Compound A020] | 11.4 nM
Cn1c(N2CCCO[C@@H](c3ccc(Br)cc3)C2)nc(-c2ccncc2)cc1=O [Compound A021, (S)-2-[2-(4-bromophenyl)-1,4-oxazepan-4-yl]-3-methyl-6-(pyridin-4-yl)pyrimidin-4(3H)-one] | 12 nM
Cn1c(N2CCCO[C@@H](c3ccc(F)cc3)C2)nc(-c2ccncc2)cc1=O [Compound A022, (S)-2-[2-(4-fluorophenyl)-1,4-oxazepan-4-yl]-3-methyl-6-(pyridin-4-yl)pyrimidin-4(3H)-one] | 12.5 nM
Cn1c(N2CCCO[C@H](c3cccc(Br)c3)C2)nc(-c2ccncc2)cc1=O [Compound A023, (R)-2-[2-(3-bromophenyl)-1,4-oxazepan-4-yl]-3-methyl-6-(pyridin-4-yl)pyrimidin-4(3H)-one] | 12.7 nM
Cn1c(N2CCCO[C@@H](c3cccc(Br)c3)C2)nc(-c2ccncc2)cc1=O [Compound A024, (S)-2-[2-(3-bromophenyl)-1,4-oxazepan-4-yl]-3-methyl-6-(pyridin-4-yl)pyrimidin-4(3H)-one] | 13 nM
Cn1c(N2CCCO[C@H](c3cccc(Br)c3)C2)nc(-c2ccncc2F)cc1=O [Compound A025, (R)-2-[2-(3-bromophenyl)-1,4-oxazepan-4-yl]-6-(3-fluoropyridin-4-yl)-3-methylpyrimidin-4(3H)-one] | 13.7 nM
Cn1c(N2CCCOC(c3ccccc3)C2)nc(-c2ccncn2)cc1=O (stereo not drawn) [Compound A026, 2-(2-phenyl-1,4-oxazepan-4-yl)-3-methyl-6-(pyrimidin-4-yl)pyrimidin-4(3H)-one] | 14.6 nM
Cc1nc(-c2ccc([C@H]3CN(c4nc(-c5ccncc5F)cc(=O)n4C)CCCO3)cc2)no1 [Compound A027, (S)-2-[2-[4-(5-methyl-1,2,4-oxadiazol-3-yl)-phenyl]-1,4-oxazepan-4-yl]-6-(3-fluoropyridin-4-yl)-3-methylpyrimidin-4(3H)-one] | 15.4 nM

Compound | IC50
Cn1c(N2CCCO[C@@H](c3ccc(C#N)cc3)C2)nc(-c2ccncn2)cc1=O [Compound A028, (S)-2-[2-(4-cyanophenyl)-1,4-oxazepan-4-yl]-3-methyl-6-(pyrimidin-4-yl)pyrimidin-4(3H)-one] | 17.6 nM
Cn1c(N2CCCO[C@H](c3cccc(C(N)=O)c3)C2)nc(-c2ccncc2F)cc1=O [Compound A029] | 18.8 nM
Cc1nc(-c2cccc([C@H]3CN(c4nc(-c5ccncn5)cc(=O)n4C)CCCO3)c2)no1 [Compound A030, (S)-2-[2-[3-(5-methyl-1,2,4-oxadiazol-3-yl)-phenyl]-1,4-oxazepan-4-yl]-3-methyl-6-(pyrimidin-4-yl)pyrimidin-4(3H)-one] | 19.8 nM
Cc1noc(-c2ccc([C@H]3CN(c4nc(-c5ccncn5)cc(=O)n4C)CCCO3)cc2)n1 [Compound A031, (S)-2-[2-[4-(3-methyl-1,2,4-oxadiazol-5-yl)-phenyl]-1,4-oxazepan-4-yl]-3-methyl-6-(pyrimidin-4-yl)pyrimidin-4(3H)-one] | 20.2 nM
Cc1noc(-c2cccc([C@H]3CN(c4nc(-c5ccncc5F)cc(=O)n4C)CCCO3)c2)n1 [Compound A032, (S)-2-[2-[3-(3-methyl-1,2,4-oxadiazol-5-yl)-phenyl]-1,4-oxazepan-4-yl]-6-(3-fluoropyridin-4-yl)-3-methylpyrimidin-4(3H)-one] | 21.6 nM
Cn1c(N2CCCO[C@@H](c3cccc(C(N)=O)c3)C2)nc(-c2ccncc2)cc1=O [Compound A033, (S)-2-[2-(3-aminocarbonylphenyl)-1,4-oxazepan-4-yl]-3-methyl-6-(pyridin-4-yl)pyrimidin-4(3H)-one] | 23.4 nM
Cn1c(N2CCCOC(c3ccc(F)cc3)C2)nc(-c2ccncc2)cc1=O (stereo not drawn) [Compound A035, 2-[2-(4-fluorophenyl)-1,4-oxazepan-4-yl]-3-methyl-6-(pyridin-4-yl)pyrimidin-4(3H)-one hydrochloride] | 27 nM
Cc1noc(-c2ccc([C@H]3CN(c4nc(-c5ccncc5)cc(=O)n4C)CCCO3)cc2)n1 [Compound A036, (S)-2-[2-[4-(3-methyl-1,2,4-oxadiazol-5-yl)-phenyl]-1,4-oxazepan-4-yl]-3-methyl-6-(pyridin-4-yl)pyrimidin-4(3H)-one] | 28.7 nM
Cn1c(N2CCCO[C@@H](c3ccc(C#N)cc3)C2)nc(-c2ccncc2)cc1=O [Compound A037, (S)-2-(2-(4-cyanophenyl)-1,4-oxazepan-4-yl)-3-methyl-6-(pyridin-4-yl)pyrimidin-4(3H)-one] | 30.8 nM
Cn1c(N2CCCO[C@H](c3ccc(C(N)=O)cc3)C2)nc(-c2ccncc2F)cc1=O [Compound A038, (R)-2-[2-(4-aminocarbonylphenyl)-1,4-oxazepan-4-yl]-6-(3-fluoropyridin-4-yl)-3-methylpyrimidin-4(3H)-one] | 30.9 nM
Cn1c(N2CCCO[C@@H](c3cccc(C#N)c3)C2)nc(-c2ccncn2)cc1=O [Compound A039, (S)-2-[2-(3-cyanophenyl)-1,4-oxazepan-4-yl]-3-methyl-6-(pyrimidin-4-yl)pyrimidin-4(3H)-one] | 31.9 nM
Cn1c(N2CCCOC(c3ccccc3)C2)nc(-c2ccncc2)cc1=O (stereo not drawn) [Compound A040, 2-(2-phenyl-1,4-oxazepan-4-yl)-3-methyl-6-(pyridin-4-yl)pyrimidin-4(3H)-one] | 32.7 nM
CC1CN(c2nc(-c3ccncc3F)cc(=O)n2C)CCCO1 (stereo not drawn) [Compound A041, 2-(2-methyl-1,4-oxazepan-4-yl)-6-(3-fluoropyridin-4-yl)-3-methylpyrimidin-4(3H)-one] | 34.8 nM
Cc1nc(-c2cccc([C@H]3CN(c4nc(-c5ccncc5)cc(=O)n4C)CCCO3)c2)no1 [Compound A042, (S)-2-[2-[3-(5-methyl-1,2,4-oxadiazol-3-yl)-phenyl]-1,4-oxazepan-4-yl]-3-methyl-6-(pyridin-4-yl)pyrimidin-4(3H)-one] | 44.6 nM
Cn1c(N2CCCO[C@H](c3cccc(Br)c3)C2)nc(-c2ccncn2)cc1=O [Compound A043, (R)-2-[2-(3-bromophenyl)-1,4-oxazepan-4-yl]-3-methyl-6-(pyrimidin-4-yl)pyrimidin-4(3H)-one] | 51 nM
Cn1c(N2CCCO[C@H](c3ccc(Br)cc3)C2)nc(-c2ccncc2F)cc1=O [Compound A044, (R)-2-[2-(4-bromophenyl)-1,4-oxazepan-4-yl]-6-(3-fluoropyridin-4-yl)-3-methylpyrimidin-4(3H)-one] | 52.4 nM
Cc1noc(-c2cccc([C@H]3CN(c4nc(-c5ccncn5)cc(=O)n4C)CCCO3)c2)n1 [Compound A045, (S)-2-[2-[3-(3-methyl-1,2,4-oxadiazol-5-yl)phenyl]-1,4-oxazepan-4-yl]-3-methyl-6-(pyrimidin-4-yl)pyrimidin-4(3H)-one] | 57.1 nM
Cn1c(N2CCCO[C@@H](c3cccc(C#N)c3)C2)nc(-c2ccncc2)cc1=O [Compound A046, (S)-2-[2-(3-cyanophenyl)-1,4-oxazepan-4-yl]-3-methyl-6-(pyridin-4-yl)pyrimidin-4(3H)-one] | 61.5 nM
